In patent publication US8436160B2, “Isolated DNA fragment of the SPARC human promoter and its use for driving the expression of an heterologous gene in tumor cells” (Consejo Nacional de Investigaciones Cientificas y Tecnicas …, priority 2006, dated 2013):

Assays:
[1] = tested on: hMEC-1 cells; experiment: Ad(I)-F512-TK lytic effect in monolayer with GCV prodrug; type: cell-based, human
Procedure: (§1) According to the present inventors' hypothesis, normal cells have more resistance to viral replication. In this case, adding a toxic gene would allow for the enhancement of the lytic capability in a specific manner in those cells wherein the SPARC promoter was active. Thus, in vitro assays with Ad(I)-F512-TK were carried out, in which the cells were also treated by adding ganciclovir (GCV) prodrug. […] Other analyzed endothelial cells were those of bovine aorta (BAEC, kindly provided by Helene Sage, Seattle, USA).

[2] = tested on: BAEC cells; experiment: as above; type: cell-based, Bovine
Procedure: as §1

[3] = tested on: A375N (melanoma), HeLa (cervix) and T-47D (breast) cell lines; experiment: Luciferase reporter promoter activity of SPARC promoter fragments; type: cell-based, human; conditions: pGL3 constructs; relative to pGL3-Basic; A375N expresses SPARC, HeLa and T-47D do not
From the text: The promoters obtained according to Example 2 were subcloned in the MluI/BglII, MluI/XhoI or NheI/XhoI sites of the pGL3-Basic plasmid (Promega Corp., Madison, Wis., USA) upstream of the luciferase reporter gene. All of the clonings was confirmed by restriction profiles and by sequencing the vectors (pGEM, TOPO and/or pGL3) with the universal primers T7 (TACGACTCACTATAGGG; SEQ ID NO 27); Sp6 (ATTTAGGTGACACTATAG; SEQ ID NO 28), T3 ([…]; SEQ ID NO 29) or P2 ([…]; SEQ ID NO 30) and P3 ([…]; SEQ ID NO 31).
The presence of the luciferase reporter gene allowed for the quantification of SPARC promoter activity in the 11 fragments obtained in Example 2, by measuring the luciferase enzymatic activity. The assay was performed in three cell lines, using the (melanoma) A375N line as a model since it expresses high SPARC levels and the (cervix) HeLa and (breast) T-47D lines, not expressing SPARC, according to the teachings of Example 1 above.
(§2) The cells were seeded in 24-well plates with a density of 4×10^4 cells/well. After 24 hours they were transfected using Lipofectamine2000 (Invitrogen Corp., Carlsbad, Calif.) according to the conditions indicated by the manufacturer. Each treatment was carried out at least in duplicate for each cell line, incubating 0.8 μg of treatment plasmid with 0.1 μg of pRL-CMV plasmid for 5 minutes with 50 μl DMEM medium without antibiotic and simultaneously, 1 μl Lipofectamine2000 with 50 μl of the same medium. These two preparations were mixed and incubated for 20 minutes at room temperature. The medium with cell serum was removed, washed with PBS and 200 μl high glucose DMEM was added without serum and without antibiotics; subsequently, 100 μl medium containing the lipofection mixture was added and 800 μl of culture medium corresponding to each cell line, supplemented with BFS, was added 4 hours later. The cells used were kept in a stove for 46 hours at 37° C. with 5% CO2. The Dual Luciferase Reporter Assay System kit (Promega Corp., Madison, Wis.) was used for the luciferase assay. This system implies the simultaneous expression of two individual reporter enzymes in the same system, allowing for the evaluation of the activity produced by the luciferase enzymes from the Firefly glow-worm (Photinus pyralis) and the Renilla coelenterate (Renilla reniformis) in only one sequential assay (Sherf, B. A. et al., Dual Luciferase Reporter Assay: An Advanced Co-Reporter Technology Integrating Firefly and Renilla Luciferase Assays. Promega Notes Magazine: 2-9, 1996). The data were normalized in the following way:
(§3) The data are expressed as induction amount relative to the activity obtained with the pGL3-Basic control plasmid (without promoter). […]

[4] = tested on: different tumor and normal cell lines; experiment: Luciferase reporter promoter activity, F512 vs Spdel; type: cell-based; conditions: for promoter activity across cell lines vs SPARC expression: melanoma, colon (T84, LoVo), glioma (U87), cervix (HeLa)
Procedure: as §2, §3
(§4) The two promoters F512 and Spdel, having similar promoter activity and as identified by the method of Example 3A, were assessed in different tumor and normal cell lines (see references in Example 1).

[5] = tested on: melanoma line MEL888; experiment: Luciferase reporter promoter activity; type: cell-based, human
Procedure: as §2
(§5) The data are expressed as induction amount relative to the activity obtained with the pGL3-Basic control plasmid (without promoter). The pGl3-promoter plasmid (pGL3-prom, Promega Corp., Madison, Wis.) wherein the viral promoter from SV40 drives the expression of the luciferase enzyme, was used as a transfection control.
as §4

[6] = tested on: SB2 line; experiment: Luciferase reporter promoter activity; type: cell-based, human
Procedure: as §2, §5, §4

[7] = tested on: T84; experiment: Luciferase reporter promoter activity; type: cell-based, human
Procedure: as §2, §5, §4

[8] = tested on: fibroblast line WI-38 VA; experiment: Luciferase reporter promoter activity; type: cell-based, human
Procedure: as §2, §5, §4

[9] = tested on: endothelium BAEC line; experiment: Luciferase reporter promoter activity; type: cell-based, Bovine
Procedure: The cells were seeded in 24-well plates with a density of 4×10^4 cells/well. After 24 hours they were transfected using Lipofectamine2000 (Invitrogen Corp., Carlsbad, Calif.) according to the conditions indicated by the manufacturer. Each treatment was carried out at least in duplicate for each cell line, incubating 0.8 μg of treatment plasmid with 0.1 μg of pRL-CMV plasmid for 5 minutes with 50 μl DMEM medium without antibiotic and simultaneously, 1 μl Lipofectamine2000 with 50 μl of the same medium. These two preparations were mixed and incubated for 20 minutes at room temperature. The medium with cell serum was removed, washed with PBS and 200 μl high glucose DMEM was added without serum and without antibiotics; subsequently, 100 μl medium containing the lipofection mixture was added and 800 μl of culture medium corresponding to each cell line, supplemented with BFS, was added 4 hours later. The cells used were kept in a stove for 46 hours at 37° C. with 5% CO2. […]
as §3, §4

## Nc1nc(O)c2ncn(COC(CO)CO)c2n1 [GCV, ganciclovir]
[1]
  sensitivity of cells to prodrug alone: sensitive to the presence of the prodrug alone
[2]
  sensitivity of cells to prodrug: sensitive to the prodrug

## −1175/+71: complete human SPARC promoter, SEQ ID NO 17
[3]
  promoter activity and specificity (luciferase): lower promoter activity in melanoma lines

## Spdel: complete SPARC promoter −1175/+71 with the 10 bp between the two GGA boxes deleted, SEQ ID NO 18
[3]
  promoter activity and specificity (luciferase): same activity than F512, in the A375N melanoma line
[4]; average, both in tumor and normal lines
  promoter activity with respect to the empty vector pGL3-Basic: 140 times higher
[4]
  promoter activity across cell lines vs SPARC expression: same activity in all lines
[5]
  promoter activity with respect to the empty vector pGL3-Basic: 430 times higher

B1: −120/+71: SPARC promoter fragment including the complete first exon, SEQ ID NO 24 (nucleic acid, listed as Homo sapiens)
DNA: GGGAGAAGGAGGAGGCCGGGGGAAGGAGGAGACAGGAGGAGGAGGGACCACGGGGTGGAGGGGAGATAGACCCAGCCCAGAGCTCTGAGTGGTTTCCTGTTGCCTGTCTCTAAACCCCTCCACATTCCCGCGGTCCTTCAGACTGCCCGGAGAGCGCGCTCTGCCTGCCGCCTGCCTGCCTGCCACTGAGG
[3]
  promoter activity and specificity (luciferase): higher unspecificity

B2: F512: human SPARC promoter fragment from base pair −513 to +35, SEQ ID NO 1 (nucleic acid, listed as Homo sapiens)
DNA: GCAGCTTGTCTTGTCTGTACAGTGGTAAGTCCTGGCCTTGCCTTTGTGGCAAATACAACCCCCTTGAATTGCTTGGCCCTTCTCAGCATTGCCTAATATTAGGGAGGACTCCTGTAAAGCTCACTGGTTAGAAGATCAAGACACTTGGGCCTGGTTCTGCCCCTGGGGGCCATTGGGTAATTCCTTGCAGTCTCCAGGCCTCACTTGCCCTCTGAACAAGAAAGAGGCTGTTCTGGGTCATCCCTCCAGGCCTGTCCAGCCCTGGCACTCTGTGAGTCGGTTTAGGCAGCAGCCCCGGAACAGATGAGGCAGGCAGGGTTGGGACGTTTGGTCAGGACAGCCCACCGCAAAAAGAGGAGGAAAGAAATGAAAGACAGAGACAGCTTTGGCTATGGGAGAAGGAGGAGGCCGGGGGAAGGAGGAGACAGGAGGAGGAGGGACCACGGGGTGGAGGGGAGATAGACCCAGCCCAGAGCTCTGAGTGGTTTCCTGTTGCCTGTCTCTAAACCCCTCCACATTCCCGCGGTCCTTCAGACTGCCCGGAGAGC
modifications: DNA fragment of the SPARC human promoter.
[3]
  promoter activity and specificity (luciferase): higher specificity and higher activity in the line expressing SPARC
[4]
  promoter activity across cell lines vs SPARC expression: lower activity in those lines with little or null SPARC expression
[6]
  promoter activity relative to the activity observed in A375N: approximately ⅓
[7]
  promoter activity relative to melanoma lines: half the activity observed for the melanoma lines
[8]
  promoter activity: active
[9]
  promoter activity: active
